Experimental data: US6610309B2, “Therapeutic composition comprising an antigen or an in vivo generator of a compound comprising an amino acid sequence” (Societe d'Exploitation de Produits pour les Industries …, priority 1995, dated 2003)
Like-named read-outs stand apart in the source and are kept apart here.

Legend:
total IgG and total IgG1 = assay: Humoral response, comparison of calcium salts (Example 4); type: in vivo, OF1 mice; settings: 0.5 mg of calcium salt, 50 μg antigen, 100 μl s.c.; injection repeated on D28; antibodies assayed on D42
Procedure: (§1) The therapeutic compositions were injected subcutaneously.
(§2) The antibodies were assayed 42 days after the vaccination.
(§3) Injection of the therapeutic composition was repeated on D28. The antibodies were assayed on D42.

IgG2a = assay: Cell response, comparison of calcium salts (Example 4); type: in vivo, OF1 mice; settings: 0.5 mg of calcium salt, 50 μg antigen, 100 μl s.c.; injection repeated on D28; antibodies assayed on D42
Procedure: as §1, §2, §3

mice [1] = settings: 0.5 mg of calcium salt, 50 μg antigen, 100 μl s.c.; observed during the tests of Example 4
Procedure: as §1
Each therapeutic composition, 100 μl in volume, contained 50 μg of antigen and, except for the control, 0.5 mg of a calcium salt, such that the calcium concentration of each composition was 2.7 mg.
as §3

mice [2] = settings: in vivo, sc
Procedure: (§4) The examples were performed on OF1 mice whose average weight was between 18 and 20 g.
(§5) The therapeutic compositions comprised Sigma Grade V bovine serum albumin (BSA) as antigen.
as §1
A therapeutic composition 100 μl in volume, comprising 50 μg of antigen, was injected into various batches of mice each comprising 5 mice. The local reactions (lesions and granulomae) were evaluated on D8 and D35.

anti-BSA antibodies = type: in vivo, OF1 mice; settings: last dilution above background noise; for anti-BSA antibody/ primary response (D14) / anti-BSA antibody/ primary response (D28): 50 μg BSA in 100 μl s.c. on D0
Procedure: as §4
The results expressed are an average of the results obtained on 10 mice.
as §5, §1
The humoral immune response was determined by assay of the total IgG and of the total IgG1, according to the ELISA method.
The antibody levels mentioned in the examples correspond to the last dilution above the background noise.
Therapeutic compositions (or doses) of 100 μl each, comprising 50 μg of BSA, are prepared.
These therapeutic compositions were injected into the mice on D0 (i.e. the day of injection).
The level of anti-BSA antibodies was determined 14 and 28 days after the injection (primary response).
On D28, the same therapeutic composition was injected into the same mice.
The level of anti-BSA antibodies was determined on D42 and D56.

[3] = adjuvant 3 mg/dose, 50 μg BSA s.c. on D0, repeated on D28
[4] = adjuvant 0.5 mg/dose, 50 μg BSA s.c. on D0, repeated on D28
[5] = adjuvant 1 mg/dose, 50 μg BSA in 100 μl s.c. on D0, repeated on D28
[6] = adjuvant 2 mg/dose, 50 μg BSA s.c. on D0, repeated on D28

SMILES	Humoral response (total IgG and total IgG1)	Cell response (IgG2a)	local reactions (D8), Mouse No. 1 (mice [2])	local reactions (D8), Mouse No. 2 (mice [2])	local reactions (D8), Mouse No. 3 (mice [2])	local reactions (D8), Mouse No. 4 (mice [2])	local reactions (D8), Mouse No. 5 (mice [2])	local reactions (D35), Mouse No. 1 (mice [2])	local reactions (D35), Mouse No. 2 (mice [2])	local reactions (D35), Mouse No. 3 (mice [2])	local reactions (D35), Mouse No. 4 (mice [2])	local reactions (D35), Mouse No. 5 (mice [2])	also measured
O=C([O-])[O-].[Ca+2] [CaCO3]	32,000	4000											
[Ca+2].[Cl-].[Cl-] [CaCl2]	64,000	24,000											lesions induced (mice [1]): very large lesions
O=P([O-])([O-])O.[Ca+2] [CaHPO4]	64,000	10,000											
O=C([O-])[C@H](O)[C@@H](O)[C@H](O)[C@H](O)CO.O=C([O-])[C@H](O)[C@@H](O)[C@H](O)[C@H](O)CO.[Ca+2] [GluCa]	128,000	32,000	−	−	−	−	−	−	−	−	−	−	anti-BSA antibody/ primary response (D14) (anti-BSA antibodies; adjuvant 3 mg/dose): 116,000; anti-BSA antibody/ primary response (D28) (anti-BSA antibodies; adjuvant 3 mg/dose): 8000; anti-BSA antibody/ primary response (D42) (anti-BSA antibodies; [3]): 128,000; anti-BSA antibody/ primary response (D56) (anti-BSA antibodies; [3]): 96,000
O=C([O-])[C@H](O)[C@@H](O)[C@H](O)[C@H](O)CO.[K+] [GluK]			−	−	−	−	−	−	−	−	−	−	
O=C([O-])[C@H](O)[C@@H](O)[C@H](O)[C@H](O)CO.O=C([O-])[C@H](O)[C@@H](O)[C@H](O)[C@H](O)CO.[Zn+2] [GluZn]													anti-BSA antibody/ primary response (D14) (anti-BSA antibodies; adjuvant 0.5 mg/dose): 16,000; anti-BSA antibody/ primary response (D28) (anti-BSA antibodies; adjuvant 0.5 mg/dose): 6000; anti-BSA antibody/ primary response (D42) (anti-BSA antibodies; [4]): 96,000; anti-BSA antibody/ primary response (D56) (anti-BSA antibodies; [4]): 96,000
O=C([O-])C(O)C(O)C(O)C(O)C(O)CO.O=C([O-])C(O)C(O)C(O)C(O)C(O)CO.[Zn+2] (centres unmarked) [GluhpZn]													anti-BSA antibody/ primary response (D42) (anti-BSA antibodies; [5]): 64,000; anti-BSA antibody/ primary response (D56) (anti-BSA antibodies; [5]): 64,000; anti-BSA antibody/ primary response (D28) (anti-BSA antibodies; adjuvant 1 mg/dose): 6000; anti-BSA antibody/ primary response (D14) (anti-BSA antibodies; adjuvant 1 mg/dose, average of 10 mice): 8000
O=P([O-])([O-])OCC(O)CO.[Ca+2] (centres unmarked) [GlyCa]													anti-BSA antibody/ primary response (D14) (anti-BSA antibodies; adjuvant 2 mg/dose): 4000; anti-BSA antibody/ primary response (D28) (anti-BSA antibodies; adjuvant 2 mg/dose): 2000; anti-BSA antibody/ primary response (D42) (anti-BSA antibodies; [6]): 64,000; anti-BSA antibody/ primary response (D56) (anti-BSA antibodies; [6]): 64,000
O=P([O-])([O-])OCC(O)CO.[Mn+2] (centres unmarked) [GlyMn]				+	++	+	−	−	+	+	+	+	
[Cl][Mn][Cl] [MnCl^2+, reference compound]			+++					+++					
